The results in this text go back to patent publication US20240368096A1 (Enanta Pharmaceuticals, Inc., priority 2022, published 2024).

For orientation: EC50 means the midpoint of the concentration-response curve.

This experiment has as its system HBV. Kind of experiment: HBV infection in HepG2-NTCP cells (HBeAg AlphaLISA in supernatants). The class given is cell-based. Conditions: Hepatitis B virus, 192 h; HBV infection of HepG2-NTCP cells; HBeAg in supernatants at day 8 post infection; read-out: Cellular EC50. In short, it runs like this:
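HepG2-NTCP A3 cells were pre-incubated 2 h with 3-fold serially diluted compounds, then infected with HBV at 2000 GE/cell with 4% PEG (0.5% DMSO final). After washing on day 1, cells stayed in 2.5% DMSO medium; supernatant HBeAg measured by AlphaLISA on day 8, EC50 versus DMSO controls.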
As for `CN1[C@H](CN=[N+]=[N-])CN(c2ccccc2)c2cc(Cl)c(-c3ccc(F)c(C(=O)O)c3)cc2S1(=O)=O` [Example 99, (S)-5-(3-(azidomethyl)-7-chloro-2-methyl-1,1-dioxido-5-phenyl-2,3,4,5-tetrahydrobenzo[f][1,2,5]thiadiazepin-8-yl)-2-fluorobenzoic acid], the concentration giving a half-maximal response (EC50) is above 1 µM.
In the case of `CN1[C@H](C2CCCCC2)CN(c2ccccc2)c2cc(OCC34CC(C#N)(CO3)C4)c(-c3cc(F)c(C(=O)O)s3)cc2S1(=O)=O` [Example 504], the EC50 is below 0.1 µM.
With `CC(C)C[C@@H]1CN(c2ccccc2)c2cc(Nc3ccccn3)c(-c3ccc(Cl)c(C(=O)O)c3)cc2S(=O)(=O)N1C` [Example 549], the concentration giving a half-maximal response (EC50) fell in the range of 0.1 to 1 µM.
With `O=C(O)c1cccc(-c2cc3c(cc2Cl)N(c2ccccc2)CC2CC4(CC4)CN2S3(=O)=O)c1` (centres unmarked) [Example 57] the figure was 0.1 to 1 µM; with `CN1[C@H](C2CCCCC2)CN(c2ccccc2)c2cc(C3CC3)c(-c3cc(F)c(F)c(C(=O)O)c3)cc2S1(=O)=O` [Example 583, (R)-5-(3-cyclohexyl-7-cyclopropyl-2-methyl-1,1-dioxido-5-phenyl-2,3,4,5-tetrahydrobenzo[f][1,2,5]thiadiazepin-8-yl)-2,3-difluorobenzoic acid], 0.1 to 1 µM.
Take `CCCC[C@@H]1CN(c2ccccc2)c2cc(Oc3ccccc3Cl)c(-c3ccc(F)c(C(=O)O)c3)cc2S(=O)(=O)N1C` [Example 422]: the EC50 lay within 0.1 to 1 µM.
To `CN1[C@H](CC2CCC2)CN(c2ccccc2)c2cc(Cl)c(-c3ccc(F)c(C(=O)O)c3)cc2S1(=O)=O` [Example 75] belongs 0.1 to 1 µM.
Turning to `CN1[C@H](C2CCCCC2)CN(c2ccccc2)c2cc(C3CCOCC3)c(-c3ccc(F)c(C(=O)O)c3)cc2S1(=O)=O` [Example 591], the EC50 was in the range of 0.1 to 1 µM.
As for `CN1[C@H](C2CCCCC2)CN(c2cncc(F)c2)c2cc(Cl)c(-c3ccc(F)c(C(=O)O)c3)cc2S1(=O)=O` [Example 280, (R)-5-(7-chloro-3-cyclohexyl-5-(5-fluoropyridin-3-yl)-2-methyl-1,1-dioxido-2,3,4,5-tetrahydrobenzo[f][1,2,5]thiadiazepin-8-yl)-2-fluorobenzoic acid], the EC50 lay in the range of 0.1 to 1 µM.
With `COCCN(C)c1cc2c(cc1-c1ccc(F)c(C(=O)O)c1)S(=O)(=O)N(C)[C@H](C1CCCCC1)CN2c1ccccc1` [Example 537] the figure was 0.1 to 1 µM.
For `CCCC[C@@H]1CN(c2ccccc2)c2cc(C)c(-c3ccc(Cl)c(C(=O)O)c3)cc2S(=O)(=O)N1C` [Example 567], the concentration for a half-maximal effect (EC50) lay within 0.1 to 1 µM.
Regarding `CC(Oc1cc2c(cc1-c1cc(F)c(C(=O)O)s1)S(=O)(=O)N(C)[C@H](C1CCCCC1)CN2c1ccccc1)c1nccs1` (some centres unmarked) [Example 502], the EC50 lay within 0.1 to 1 µM.
To `CCC1CN(c2ccccc2)c2cc(Cl)c(-c3ccc(Cl)c(C(=O)O)c3)cc2S(=O)(=O)N1C` (centres unmarked) [Example 46] belongs 0.1 to 1 µM; to `CC(C)C[C@@H]1CN(c2ccccc2)c2cc(N3CCCCC3)c(-c3ccc(Cl)c(C(=O)O)c3)cc2S(=O)(=O)N1C` [Example 552], below 0.1 µM.
`CC(C)C[C@@H]1CN(c2ccccc2)c2cc(Cl)c(-c3ccc(OCC(F)(F)F)c(C(=O)O)c3)cc2S(=O)(=O)N1C` [Example 214, (R)-5-(7-chloro-3-isobutyl-2-methyl-1,1-dioxido-5-phenyl-2,3,4,5-tetrahydrobenzo[f] [1,2,5]thiadiazepin-8-yl)-2-(2,2,2-trifluoroethoxy)benzoic acid]: the concentration giving a half-maximal response (EC50) is 0.1 to 1 µM.
With `CC(C)C[C@@H]1CN(c2ccccc2)c2cc(Cl)c(-c3cc(OC(F)(F)F)cc(C(=O)O)c3)cc2S(=O)(=O)N1C` [Example 161] the figure was 0.1 to 1 µM; with `CC(C)CC1CN(c2ccccc2)c2cc(Cl)c(-c3cc(Cl)cc(C(=O)O)c3)cc2S(=O)(=O)N1C` (centres unmarked) [Example 37], 0.1 to 1 µM.
On to `CC(C)C[C@@H]1CN(c2ccccc2)c2cc(OCC34CCCN3CCC4)c(-c3ccc(F)c(C(=O)O)c3)cc2S(=O)(=O)N1C` [Example 450], for which the half-maximal effective concentration (EC50) is above 1 µM.
With `CN1[C@H](c2cccc(F)c2)CN(c2ccccc2)c2cc(Cl)c(-c3ccc(F)c(C(=O)O)c3)cc2S1(=O)=O` [Example 55], the EC50 was 0.1 to 1 µM.
Take `CCCC[C@@H]1CN(c2ccccc2)c2cc(Nc3ccccc3F)c(-c3ccc(F)c(C(=O)O)c3)cc2S(=O)(=O)N1C` [Example 522]: the EC50 was below 0.1 µM.
Turning to `CCCC[C@@H]1CN(c2ccccc2)c2cc(-n3cnc4ccccc43)c(-c3ccc(F)c(C(=O)O)c3)cc2S(=O)(=O)N1C` [Example 527], the EC50 lay within 0.1 to 1 µM.
To `CC(C)C[C@@H]1CN(c2ccccc2)c2cc(-c3ccc4ncoc4c3)c(-c3ccc(F)c(C(=O)O)c3)cc2S(=O)(=O)N1C` [Example 579] belongs 0.1 to 1 µM; to `CN1[C@H](C2CCCCC2)CN(c2ccccc2)c2cc(Cl)c(-c3cc(C(=O)O)c4cc[nH]c4c3)cc2S1(=O)=O` [Example 209], 0.1 to 1 µM; to `C[C@H](OCc1ccccc1)[C@@H]1CN(c2ccccc2)c2cc(Cl)c(-c3ccc(F)c(C(=O)O)c3)cc2S(=O)(=O)N1C` [Example 90], 0.1 to 1 µM.
For the compound `CN1[C@H](C2CCCCC2)CN(c2ccccc2)c2cc(OCc3ccccc3)c(-c3cc(F)c(C(=O)O)s3)cc2S1(=O)=O` [Example 508], the EC50 is below 0.1 µM.
To `CN1[C@H](CN2CCCC2)CN(c2ccccc2)c2cc(Cl)c(-c3ccc(F)c(C(=O)O)c3)cc2S1(=O)=O` [Example 110] belongs above 1 µM; to `CN1C[C@@H](C2CCCCC2)N(C)S(=O)(=O)c2cc(-c3ccc(F)c(C(=O)O)c3)c(Cl)cc21` [Example 582, (R)-5-(7-chloro-3-cyclohexyl-2,5-dimethyl-1,1-dioxido-2,3,4,5-tetrahydrobenzo[f][1,2,5]thiadiazepin-8-yl)-2-fluorobenzoic acid], 0.1 to 1 µM; to `CN1[C@H](C2CCCCC2)CN(c2ccccc2)c2cc(Cl)c(-c3cc(NC(=O)OCC(C)(C)C)c(C(=O)O)s3)cc2S1(=O)=O` [Example 255], below 0.1 µM.
For `CCCC[C@H]1CN(c2ccccc2)c2cc(N3CCCC3)c(-c3ccc(F)c(C(=O)O)c3)cc2S(=O)(=O)N1C` [Example 543], the EC50 was above 1 µM.
For the compound `CN1[C@H](C2CCCCC2)CN(c2ccccc2)c2cc(Cl)c(-c3ccc(Cl)c(S(N)(=O)=O)c3)cc2S1(=O)=O` [Example 200], the concentration for a half-maximal effect (EC50) was 0.1 to 1 µM.
Turning to `CN1[C@H](COc2ccccc2)CN(c2ccccc2)c2cc(Cl)c(-c3ccc(F)c(C(=O)O)c3)cc2S1(=O)=O` [Example 100, (S)-5-(7-chloro-2-methyl-1,1-dioxido-3-(phenoxymethyl)-5-phenyl-2,3,4,5-tetrahydrobenzo[f][1,2,5]thiadiazepin-8-yl)-2-fluorobenzoic acid], the EC50 is above 1 µM.
To `COC(C)(C)C#Cc1cc2c(cc1-c1ccc(F)c(C(=O)O)c1)S(=O)(=O)N(C)[C@H](C1CCCCC1)CN2c1ccccc1` [Example 604] belongs below 0.1 µM; to `CC(C)COC(=O)Nc1c(Cl)cc(-c2cc3c(cc2Cl)N(c2ccccc2)C[C@@H](C2CCCCC2)N(C)S3(=O)=O)cc1C(=O)O` [Example 279], below 0.1 µM.
To `CC(C)C[C@@H]1CN(c2ccccc2)c2cc(-c3cccc(NC=O)c3O)c(-c3ccc(F)c(C(=O)O)c3)cc2S(=O)(=O)N1C` [Example 577] belongs above 1 µM; to `COCCOc1cc2c(cc1-c1cc(C)c(C(=O)O)s1)S(=O)(=O)N(C)[C@H](C1CCCCC1)CN2c1ccccc1` [Example 499], below 0.1 µM; to `CN1[C@H](C2CCCCC2)CN(c2ccccc2)c2cc(OCCOC3CC3)c(-c3cc(F)c(C(=O)O)s3)cc2S1(=O)=O` [Example 496], below 0.1 µM.
For `Cn1nc(-c2cc3c(cc2F)N(c2ccccc2)CC2CC4(CC4)CN2S3(=O)=O)cc1C(=O)O` (centres unmarked) [Example 8], the EC50 was above 1 µM.
For `CN(C)c1cc2c(cc1-c1ccc(F)c(C(=O)O)c1)S(=O)(=O)N(C)[C@H](C1CCCCC1)CN2c1ccccc1` [Example 529], the EC50 was below 0.1 µM.
To `CN1[C@H](C2CCCCC2)CN(c2ccccc2)c2cc(Oc3ccccc3F)c(-c3ccc(Cl)c(C(=O)O)c3)cc2S1(=O)=O` [Example 401, (R)-2-chloro-5-(3-cyclohexyl-7-(2-fluorophenoxy)-2-methyl-1,1-dioxido-5-phenyl-2,3,4,5-tetrahydrobenzo[f][1,2,5]thiadiazepin-8-yl)benzoic acid] belongs below 0.1 µM.
With `CC(C)COC(=O)Nc1cc(-c2cc3c(cc2F)N(c2ccccc2)C[C@@H](C2CCCCC2)N(C)S3(=O)=O)sc1C(=O)O` [Example 266], the concentration for a half-maximal effect (EC50) was below 0.1 µM.
With `CCCC[C@@H]1CN(c2ccccc2)c2cc(Oc3ccc(F)cc3)c(-c3ccc(F)c(C(=O)O)c3)cc2S(=O)(=O)N1C` [Example 421] the figure was 0.1 to 1 µM; with `CC(=O)NS(=O)(=O)c1cc(-c2cc3c(cc2Cl)N(c2ccccc2)C[C@@H](C2CCCCC2)N(C)S3(=O)=O)ccc1Cl` [Example 224], below 0.1 µM.
Regarding `CC(C)Oc1ccccc1COc1cc2c(cc1-c1cc(F)c(C(=O)O)s1)S(=O)(=O)N(C)[C@H](C1CCCCC1)CN2c1ccccc1` [Example 505], the half-maximal effective concentration (EC50) was below 0.1 µM.
Consider `CC(C)C[C@@H]1CN(c2ccccc2)c2cc(OCc3cccnc3)c(-c3ccc(F)c(C(=O)O)c3)cc2S(=O)(=O)N1C` [Example 456], for which the EC50 was in the range of 0.1 to 1 µM.
For `CCOc1ccc(-c2cc3c(cc2Cl)N(c2ccccc2)C[C@@H](C2CCCCC2)N(C)S3(=O)=O)cc1C(=O)O` [Example 155, (R)-5-(7-chloro-3-cyclohexyl-2-methyl-1,1-dioxido-5-phenyl-2,3,4,5-tetrahydrobenzo[f][1,2,5]thiadiazepin-8-yl)-2-ethoxybenzoic acid], the EC50 is 0.1 to 1 µM.
Regarding `CN1[C@H](C2CCCCC2)CN(c2ccccc2)c2cc(OCc3ccsc3)c(-c3ccc(NC(=O)OCc4ccccc4)c(C(=O)O)c3)cc2S1(=O)=O` [Example 481], the concentration for a half-maximal effect (EC50) was below 0.1 µM.
`CC(C)CCCOc1cc2c(cc1-c1ccc(F)c(C(=O)O)c1)S(=O)(=O)N(C)[C@H](C1CCCCC1)CN2c1ccccc1` [Example 360]: the concentration giving a half-maximal response (EC50) was below 0.1 µM.
